Values of other authors in patent US6485736B1, “Variable release microcapsules” (priority 2000, dated 2002).

Conditions: water at 25° C.

## II
  solubility: 0.335 g in 1 dm^3 of water
